In article PMC12154458, “High-Throughput Screens of Repurposing Hub and DOS Chemical Libraries Reveal Compounds with Novel and Potent Inhibitory Activity Against the Essential Non-Neuronal Acetylcholinesterase of Schistosoma mansoni (SmTAChE)” (International Journal of Molecular Sciences, 2025):
pIC50: −log10 of the molar value. Like-named read-outs stand apart in the source and are kept apart here.

How the values were obtained:
[1] = target: recombinant human acetylcholinesterase, rHsAChE (Homo sapiens, UniProt P22303); experiment: biochemical
[2] = target: T1, rSmTAChE (Schistosoma mansoni, UniProt A0A3Q0KMM5); assay type: biochemical; conditions: for pIC50: read-out: qAC50 (IC50), rSmTAChE;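 for Inhibition (%) (Average): mostly 20 µM final but a few compounds at 5 or 10 µM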;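 for Inhibition (%) Replicate A: mostly 20 µM final but a few compounds at 5 or 10 µM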;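 for Inhibition (%) Replicate B: mostly 20 µM final but a few compounds at 5 or 10 µM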
[3] = target: T1, rSmTAChE; experiment: biochemical
[4] = read-out: qAC50 (IC50), rHsAChE

T1 sequence (A0A3Q0KMM5 27-661 limits assumed): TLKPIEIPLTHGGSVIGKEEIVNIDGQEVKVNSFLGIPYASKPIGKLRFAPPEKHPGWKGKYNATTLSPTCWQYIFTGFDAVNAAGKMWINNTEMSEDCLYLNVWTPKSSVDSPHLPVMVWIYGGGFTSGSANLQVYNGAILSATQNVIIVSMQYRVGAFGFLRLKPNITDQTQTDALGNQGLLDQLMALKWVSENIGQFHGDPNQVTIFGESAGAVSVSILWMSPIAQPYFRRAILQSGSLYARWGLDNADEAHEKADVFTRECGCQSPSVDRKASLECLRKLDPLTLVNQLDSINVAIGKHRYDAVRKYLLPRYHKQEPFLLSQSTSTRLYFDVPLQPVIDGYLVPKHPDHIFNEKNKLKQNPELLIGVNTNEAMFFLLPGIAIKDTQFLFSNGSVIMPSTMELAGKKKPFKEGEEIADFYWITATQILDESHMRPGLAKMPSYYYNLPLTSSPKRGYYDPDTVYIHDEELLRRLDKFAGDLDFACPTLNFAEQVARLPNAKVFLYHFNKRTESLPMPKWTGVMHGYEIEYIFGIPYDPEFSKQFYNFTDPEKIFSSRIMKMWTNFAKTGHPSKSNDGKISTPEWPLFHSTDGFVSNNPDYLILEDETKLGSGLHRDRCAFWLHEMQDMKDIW
recombinant human acetylcholinesterase, rHsAChE, sequence (P22303 32-614): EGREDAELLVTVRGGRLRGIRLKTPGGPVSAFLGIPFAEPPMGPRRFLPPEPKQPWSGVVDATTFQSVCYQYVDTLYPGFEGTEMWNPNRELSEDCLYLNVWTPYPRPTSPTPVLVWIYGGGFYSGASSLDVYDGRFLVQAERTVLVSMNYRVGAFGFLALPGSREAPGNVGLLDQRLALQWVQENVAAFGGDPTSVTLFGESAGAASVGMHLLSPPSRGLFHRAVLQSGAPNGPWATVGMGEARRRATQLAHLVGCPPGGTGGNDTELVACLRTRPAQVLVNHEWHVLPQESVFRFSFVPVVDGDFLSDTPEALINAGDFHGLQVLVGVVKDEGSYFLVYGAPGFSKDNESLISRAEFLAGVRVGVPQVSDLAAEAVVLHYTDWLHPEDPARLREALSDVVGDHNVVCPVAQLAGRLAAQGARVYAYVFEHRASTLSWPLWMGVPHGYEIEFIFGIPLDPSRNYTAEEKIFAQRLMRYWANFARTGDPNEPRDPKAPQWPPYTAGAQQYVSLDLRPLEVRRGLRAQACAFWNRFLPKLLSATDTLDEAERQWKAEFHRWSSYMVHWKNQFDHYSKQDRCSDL

O=C(NCCCCN1CCN(c2cccc(Cl)c2Cl)CC1)c1ccc2c(c1)Cc1ccccc1-2 [BRD-K05181084-003-04-5]
Data Mode (curve class), rHsAChE [1]: inactive | Data Mode (curve class), rSmTAChE [2]: inactive | Inhibition (%) (Average) [3]: 62.08% | Inhibition (%) Replicate A [3]: 63.93% | Inhibition (%) Replicate B [3]: 60.23%

COc1ccc(NC(=O)Nc2ccc3c(c2)[C@@H]2C[C@H](CC(=O)NCc4ccccc4F)O[C@@H](CO)[C@@H]2O3)cc1 [BRD-K05329107-001-01-3]
rHsAChE Data Mode [1]: decreasing (weakly active) | rSmTAChE Data Mode [2]: inactive | Inhibition (%) (Average) [3]: 62.78% | Inhibition (%) Replicate A [3]: 63.88% | Inhibition (%) Replicate B [3]: 61.69%

COC(=O)N[C@H](C(=O)N1CC2(CC2)C[C@H]1c1ncc(-c2ccc3c(c2)C(F)(F)c2cc(-c4ccc5nc([C@@H]6[C@H]7CC[C@H](C7)N6C(=O)[C@@H](NC(=O)OC)C(C)C)[nH]c5c4)ccc2-3)[nH]1)C(C)C [BRD-K05446112-001-01-8]
Data Mode (curve class), rHsAChE [1]: inactive | Data Mode (curve class), rSmTAChE [2]: decreasing (weakly active) | pIC50 [2]: < 4.42 | Inhibition (%) (Average) [3]: 66.27% | Inhibition (%) Replicate A [3]: 67.15% | Inhibition (%) Replicate B [3]: 65.39%

CCCCc1oc2ccc(NS(C)(=O)=O)cc2c1C(=O)c1ccc(OCCCN(CCCC)CCCC)cc1 [BRD-K05524748-003-04-4]
Data Mode (curve class), rHsAChE [1]: decreasing (weakly active) | pIC50 [1, 4]: < 4.42 | Data Mode (curve class), rSmTAChE [2]: decreasing (weakly active) | pIC50 [2]: < 4.42 | Inhibition (%) (Average) [3]: 75.77% | Inhibition (%) Replicate A [3]: 74.52% | Inhibition (%) Replicate B [3]: 77.02%

COC(=O)/C=C/c1cccc(N(Cc2ccc(-c3ccc(N(C)C)cc3)cc2)C(=O)C2CCCCC2)c1 [BRD-K08864679-001-02-2]
Data Mode (curve class), rHsAChE [1]: inactive | Data Mode (curve class), rSmTAChE [2]: inactive | Inhibition (%) (Average) [3]: 67.27% | Inhibition (%) Replicate A [3]: 71.08% | Inhibition (%) Replicate B [3]: 63.46%

COc1ccc(C#Cc2ccc3c(c2)O[C@@H](CN(C)S(=O)(=O)c2ccccc2F)[C@@H](C)CN([C@@H](C)CO)S3(=O)=O)cc1 [BRD-K10241968-001-01-1]
rHsAChE Data Mode [1]: inactive | rSmTAChE Data Mode [2]: inactive | Inhibition (%) (Average) [3]: 63.03% | Inhibition (%) Replicate A [3]: 63.23% | Inhibition (%) Replicate B [3]: 62.84%

Cc1c(C(=O)NN2CCCCC2)nn(-c2ccc(Cl)cc2Cl)c1-c1ccc(Cl)cc1 [BRD-K13296708-001-05-8]
Data Mode (curve class), rHsAChE [1]: inactive | Data Mode (curve class), rSmTAChE [2]: decreasing (weakly active) | pIC50 [2]: < 4.42 | Inhibition (%) (Average) [3]: 75.13% | Inhibition (%) Replicate A [3]: 74.54% | Inhibition (%) Replicate B [3]: 75.71%

CC(=O)c1cc([N+](=O)[O-])c(Sc2cccc(Cl)c2Cl)s1 [BRD-K13606314-001-01-3]
Data Mode (curve class), rHsAChE [1]: decreasing (weakly active) | pIC50 [1, 4]: < 4.42 | Data Mode (curve class), rSmTAChE [2]: inactive | Inhibition (%) (Average) [3]: 73.95% | Inhibition (%) Replicate A [3]: 72.57% | Inhibition (%) Replicate B [3]: 75.33%

COc1ccc(C#Cc2ccc3c(c2)O[C@H](CN(C)S(=O)(=O)c2ccccc2F)[C@H](C)CN([C@H](C)CO)S3(=O)=O)cc1 [BRD-K13781734-001-02-4]
rHsAChE Data Mode [1]: inactive | rSmTAChE Data Mode [2]: decreasing (weakly active) | Inhibition (%) (Average) [3]: 66.73% | Inhibition (%) Replicate A [3]: 61.49% | Inhibition (%) Replicate B [3]: 71.97%

COc1ccc(C#Cc2ccc3c(c2)O[C@H](CN(C)S(=O)(=O)c2ccccc2F)[C@@H](C)CN([C@@H](C)CO)S3(=O)=O)cc1 [BRD-K14241686-001-01-8]
rHsAChE Data Mode [1]: inactive | rSmTAChE Data Mode [2]: decreasing (weakly active) | Inhibition (%) (Average) [3]: 69.92% | Inhibition (%) Replicate A [3]: 70.53% | Inhibition (%) Replicate B [3]: 69.31%

O=C(C[C@@H]1C[C@@H]2c3cc(NC(=O)NC4CCCC4)ccc3O[C@@H]2[C@H](CO)O1)NCc1ccccc1F [BRD-K14652476-001-01-0]
rHsAChE Data Mode [1]: inactive | rSmTAChE Data Mode [2]: inactive | Inhibition (%) (Average) [3]: 84.81% | Inhibition (%) Replicate A [3]: 85.09% | Inhibition (%) Replicate B [3]: 84.52%

CSc1cc2c(cc1C(F)(F)F)N(C(=O)Nc1cccnc1)CC2 [BRD-K14807180-001-02-5]
Data Mode (curve class), rHsAChE [1]: inactive | Data Mode (curve class), rSmTAChE [2]: inactive | Inhibition (%) (Average) [3]: 86.29% | Inhibition (%) Replicate A [3]: 87.94% | Inhibition (%) Replicate B [3]: 84.63%

Cc1cc(SCc2sc(-c3ccc(C(F)(F)F)cc3)nc2C)ccc1OCC(=O)O [BRD-K14880289-001-03-0]
Data Mode (curve class), rHsAChE [1]: decreasing | pIC50 [1, 4]: 4.98 | Data Mode (curve class), rSmTAChE [2]: decreasing | pIC50 [2]: 4.79 | Inhibition (%) (Average) [3]: 75.45% | Inhibition (%) Replicate A [3]: 71.99% | Inhibition (%) Replicate B [3]: 78.91%

COc1ccc(NC(=O)Nc2ccc3c(c2)[C@@H]2C[C@H](CC(=O)NCC4CC4)O[C@@H](CO)[C@@H]2O3)cc1 [BRD-K17285234-001-01-9]
rHsAChE Data Mode [1]: inactive | rSmTAChE Data Mode [2]: decreasing (weakly active) | Inhibition (%) (Average) [3]: 89.37% | Inhibition (%) Replicate A [3]: 90.41% | Inhibition (%) Replicate B [3]: 88.34%

CCCCc1oc2ccccc2c1C(=O)c1cc(I)c(OCCN(CC)CC)c(I)c1 [BRD-K17561142-003-35-8]
Data Mode (curve class), rHsAChE [1]: decreasing (weakly active) | pIC50 [1, 4]: < 4.42 | Data Mode (curve class), rSmTAChE [2]: decreasing (weakly active) | pIC50 [2]: < 4.42 | Inhibition (%) (Average) [3]: 69.46% | Inhibition (%) Replicate A [3]: 66.24% | Inhibition (%) Replicate B [3]: 72.67%

C[C@H](NC(=O)C[C@H]1C[C@H]2c3cc(NC(=O)Nc4ccc(C(F)(F)F)cc4)ccc3O[C@H]2[C@H](CO)O1)c1ccccc1 [BRD-K17686770-001-01-8]
rHsAChE Data Mode [1]: inactive | rSmTAChE Data Mode [2]: decreasing (weakly active) | Inhibition (%) (Average) [3]: 68.45% | Inhibition (%) Replicate A [3]: 70.27% | Inhibition (%) Replicate B [3]: 66.63%

O=C(C[C@H]1C[C@H]2c3cc(NC(=O)Nc4ccc(C(F)(F)F)cc4)ccc3O[C@H]2[C@@H](CO)O1)NC1CCCCC1 [BRD-K18925241-001-01-0]
rHsAChE Data Mode [1]: inactive | rSmTAChE Data Mode [2]: decreasing (weakly active) | Inhibition (%) (Average) [3]: 70.28% | Inhibition (%) Replicate A [3]: 62.39% | Inhibition (%) Replicate B [3]: 78.17%

CC(C)(C)[S@@+]([O-])N1Cc2cc(C(=O)N3CCCCC3)nc(-c3cccc(-c4ccccc4F)c3)c2[C@H]1CCO [BRD-K19167425-001-01-6]
rHsAChE Data Mode [1]: inactive | rSmTAChE Data Mode [2]: decreasing (weakly active) | Inhibition (%) (Average) [3]: 62.31% | Inhibition (%) Replicate A [3]: 62.60% | Inhibition (%) Replicate B [3]: 62.02%

CCCC[C@@H](CC)COC(=O)/C=C/c1ccc(OC)cc1 [BRD-K19972289-001-01-4]
Data Mode (curve class), rHsAChE [1]: decreasing | pIC50 [1, 4]: 4.59 | Data Mode (curve class), rSmTAChE [2]: inactive | Inhibition (%) (Average) [3]: 64.81% | Inhibition (%) Replicate A [3]: 66.96% | Inhibition (%) Replicate B [3]: 62.66%

CC(C)(C#N)c1ccc(N2C(=O)OCc3cnc4ccc(-c5cnc6ccccc6c5)cc4c32)cc1 [BRD-K24556407-001-02-3]
Data Mode (curve class), rHsAChE [1]: inactive | Data Mode (curve class), rSmTAChE [2]: inactive | Inhibition (%) (Average) [3]: 72.65% | Inhibition (%) Replicate A [3]: 73.71% | Inhibition (%) Replicate B [3]: 71.58%

O=C(Nc1ccc(Cl)cc1)Nc1ccc(Cl)c(Cl)c1 [BRD-K25029121-001-05-8]
Data Mode (curve class), rHsAChE [1]: decreasing (weakly active) | pIC50 [1, 4]: < 4.42 | Data Mode (curve class), rSmTAChE [2]: inactive | Inhibition (%) (Average) [3]: 85.20% | Inhibition (%) Replicate A [3]: 84.59% | Inhibition (%) Replicate B [3]: 85.82%

CCOc1nc2cccc(C(=O)OCc3oc(=O)oc3C)c2n1Cc1ccc(-c2ccccc2-c2noc(=O)[nH]2)cc1 [BRD-K25723200-001-03-5]
Data Mode (curve class), rHsAChE [1]: decreasing (weakly active) | pIC50 [1, 4]: < 4.92 | Data Mode (curve class), rSmTAChE [2]: decreasing | pIC50 [2]: 4.94 | Inhibition (%) (Average) [3]: 67.00% | Inhibition (%) Replicate A [3]: 73.36% | Inhibition (%) Replicate B [3]: 60.64%

COc1ccc(C(Cl)=C(c2ccc(OC)cc2)c2ccc(OC)cc2)cc1 [BRD-K27062708-001-23-1]
Data Mode (curve class), rHsAChE [1]: decreasing (weakly active) | pIC50 [1, 4]: < 4.42 | Data Mode (curve class), rSmTAChE [2]: inactive | Inhibition (%) (Average) [3]: 64.11% | Inhibition (%) Replicate A [3]: 62.61% | Inhibition (%) Replicate B [3]: 65.61%

COc1ccc(NC(=O)Nc2ccc3c(c2)[C@@H]2C[C@H](CC(=O)NCc4ccc5c(c4)OCO5)O[C@@H](CO)[C@@H]2O3)cc1 [BRD-K27599706-001-01-0]
rHsAChE Data Mode [1]: decreasing (weakly active) | rSmTAChE Data Mode [2]: decreasing (weakly active) | Inhibition (%) (Average) [3]: 78.59% | Inhibition (%) Replicate A [3]: 80.15% | Inhibition (%) Replicate B [3]: 77.03%

COc1ccccc1-c1cccc(-c2nc(C(=O)NCc3ccncc3)cc3c2[C@@H](CCO)N([S@+]([O-])C(C)(C)C)C3)c1 [BRD-K32310489-001-03-4]
rHsAChE Data Mode [1]: inactive | rSmTAChE Data Mode [2]: decreasing (weakly active) | Inhibition (%) (Average) [3]: 64.60% | Inhibition (%) Replicate A [3]: 65.31% | Inhibition (%) Replicate B [3]: 63.89%

COc1cccc(C#Cc2ccc([C@@H]3[C@@H](C#N)N(C(=O)c4ccccn4)[C@H]3CO)cc2)c1 [BRD-K32986110-001-01-2, (2S,3R,4R)-4-(hydroxymethyl)-3-[4-[2-(3-methoxyphenyl)ethynyl]phenyl]-1-[oxo(2-pyridinyl)methyl]-2-azetidinecarbonitrile]
IC50 ([1]; Table 2, DOS-A library, Inactive = inactive at the maximum tested concentration (40 µM), read-out: IC50 (µM) rHsAChE): 31.2 µM | pIC50 ([1]; Table S4, DOS-A (IC50 values; qAC50), read-out: rHsAChE qAC50): 4.51 | rHsAChE Data Mode ([1]; dose response curve classification, Table S4, DOS-A): decreasing | SI (Hs/Sm) [2]: 1.1 | rSmTAChE Data Mode [2]: decreasing | inhibition at 20 µM ([3]; read-out: rSmTAChE HTS Inhibition (Ave, %)): 71.4%
